# Results reported in patent US4980283A, “Renin-inhibitory pepstatin phenyl derivatives” (Merck & Co., Inc., priority 1989, dated 1990).
# Square brackets hold non-standard residues; d marks the D form. Peptide text beside a SMILES is read from it. * marks the point of attachment. Sta = CC(C)C[C@H](N)[C@@H](O)CC(=O)O; Isovaleryl = CC(C)CC(=O)*
# Columns and labels:
# [1] = test system: renin enzyme prepared from hog kidney; assay: Renin assay (solid phase radioimmunoassay of angiotensin I); format: biochemical; details: ratio of renin I50 to pepsin I50
# Method: The compound of Example 1 was evaluated against renin, employing a solid phase radioimmunossay adapted and modified from the assay of Ikedo et al., W. of Clinical Endocrinology and Metabolism, 54, 423-428, 1982), and pepsin assays as illustrated below:
# Ten μl of the test inhibitor/broth extract from Example 1 was mixed with 5 μl of 0.11M phenylmethylsulfonyl fluoride and 0.25 ml of 0.1M potassium phosphate buffer, pH 7.0, containing 0.05% sodium azide and one mg/ml of bovine serum albumin. Twenty μl of 2 μg renin enzyme prepared from hog kidney was added and the mixture was incubated at 37° C. for 20 minutes. The enzyme reaction was initiated by adding 20 μl of substrate solution which was prepared by dissolving 4 mg of angiotensinogen in 4 ml of 0.1M potassium phosphate buffer, pH 7.0, containing 0.05% sodium azide and 1 mg/ml of BSA.
# After 20 minutes' incubation at 37° C., the enzyme reaction was stopped by the addition of 100 μl of ^125 I-angiotensin I tracer-pepstatin. […] Two ml of water was then added to each tube and the solution was aspirated, with the tube with the ball being counted in a γ-counter.
# The activity of the test compound was calculated based on the standard curve of known amount of angiotensin I.
# [2] = test system: hog renin; details: after the injection of hog renin into nephrectomized rats; cited from earlier work
structure (smiles),measurement,setting,value
CC(C)CC(=O)N[C@H](C(=O)N[C@H](C(=O)N[C@@H](CC(C)C)[C@@H](O)CC(=O)N[C@@H](C)C(=O)N[C@@H](CC(C)C)[C@@H](O)CC(=O)O)C(C)C)C(C)C [Pepstatin A] (Isovaleryl-VV[Sta]A[Sta]-OH),I50 ratio of renin/pepsin,[1],1160
same,blood pressure in vivo,[2],reduces blood pressure
